Reference: patent US6414014B1 (Bristol-Myers Squibb Company, priority 1992, dated 2002)

What was measured:
[1] = Peripheral neuropathy symptoms (PNS) in the randomized taxol study; type: in vivo, patients
Description: A nurse remained with each patient for the first hour of each infusion. Temperature, pulse, blood pressure, and respiration were taken preinfusion, every 15 minutes for the first hour, every thirty minutes for the next 2 hours, hourly for the next 4 hours, and every other hour until the end of the infusion (for patients receiving the 24-hour infusion). Other observations were also documents, such as rash/redness of the skin, hives, vomiting, nausea, and any other symptoms including neuropathy and skin rashes.
80 of 157 patients (51%) experienced some sign of symptom of peripheral neurotoxicity. The incidents in the high dose arms was 66% (49/74), while the incidents in the low dose arms was 37% (31/83). The incidents of peripheral neuropathy in the long-term (24-hour) infusion was 48% (43/89), while the incidents of peripheral neuropathy in the short-term infusion arms was […] (37/68).

[2] = in vivo
Description: Patients with platinum pretreated recurrent ovarian cancer were randomized to a 135 or 175 mg/m^2 dose arm, administered as a 3-hour or 24-hour IV infusion, which was repeated every three weeks. Responses were evaluated every two cycles. All four treatment groups were matched for age, performance status, previous treatments, and time from last platinum therapy.
All rechallenge patients received a prolonged 24-hour infusion, even if the hypersensitivity reaction occurred during a 3-hour infusion. Dosage reductions in subsequent treatment courses were mandated for all patients having (1) a granulocyte count of less than 500 cells/cmm, (2) a platelet count of less than 50,000 cells/cmm for seven days or more, (3) febrile neutropenia, (4) infection, (5) hemmorage, (6) mucositis with vesiculation and/or ulcers, or (7) vomiting appearing despite anti-emitic premedication.

[3] = Hypersensitivity reactions (HSR) in the randomized taxol study; type: in vivo, patients
Description: Patients with platinum pretreated recurrent ovarian cancer were randomized to a 135 or 175 mg/m^2 dose arm, administered as a 3-hour or 24-hour IV infusion, which was repeated every three weeks. Responses were evaluated every two cycles.

[4] = arm 135/3 (mg/m^2/infusion hours), n = 39
[5] = arm 135/24 (mg/m^2/infusion hours), n = 44
[6] = arm 175/3 (mg/m^2/infusion hours), n = 29
[7] = arm 175/4 (mg/m^2/infusion hours), n = 45
[8] = TOTAL, all four arms, 528 courses analyzed
[9] = arm 135/3 (mg/m^2/infusion hours), 132 courses analyzed
[10] = arm 135/24 (mg/m^2/infusion hours), 141 courses analyzed
[11] = arm 175/3 (mg/m^2/infusion hours), 92 courses analyzed
[12] = arm 175/4 (mg/m^2/infusion hours), 163 courses analyzed

CC(=O)O[C@H]1C(=O)[C@@]2(C)[C@H]([C@H](OC(=O)c3ccccc3)[C@]3(O)C[C@H](OC(=O)[C@H](O)[C@@H](NC(=O)c4ccccc4)c4ccccc4)C(C)=C1C3(C)C)[C@]1(OC(C)=O)CO[C@@H]1C[C@@H]2O [taxol]
patients asymptomatic prior to taxol who developed some peripheral neuropathy symptoms ([1]; 44 of 118 patients): 37% | patients with some sign or symptom of peripheral neurotoxicity ([1]; 80 of 157, all arms): 51% | First Occurence/Worsening of PNS By Cumulative Dose of Taxol: 201-400 mg/m^2 ([1]; TOTAL, all four arms, n = 157): 22 n (%) | First Occurence/Worsening of PNS By Cumulative Dose of Taxol: 401-600 mg/m^2 ([1]; TOTAL, all four arms, n = 157): 4 n (%) | First Occurence/Worsening of PNS By Cumulative Dose of Taxol: >600 mg/m^2 ([1]; TOTAL, all four arms, n = 157): 5 n (%) | First Occurence/Worsening of PNS By Cumulative Dose of Taxol: ≦200 mg/m^2 ([1]; TOTAL, all four arms, n = 157): 23 n (%) | Number of Patients Who Developed or Worsened PNS ([1]; TOTAL, all four arms, n = 157): 54 (34) n (%) | First Occurence/Worsening of PNS By Courses: Course 1 [1, 4]: 4 n (%) | First Occurence/Worsening of PNS By Courses: Course 3 [1, 4]: 1 n (%) | First Occurence/Worsening of PNS By Courses: Course 4 and more [1, 4]: 3 n (%) | First Occurence/Worsening of PNS By Cumulative Dose of Taxol: 201-400 mg/m^2 [1, 4]: 1 n (%) | First Occurence/Worsening of PNS By Cumulative Dose of Taxol: 401-600 mg/m^2 [1, 4]: 2 n (%) | First Occurence/Worsening of PNS By Cumulative Dose of Taxol: >600 mg/m^2 [1, 4]: 2 n (%) | First Occurence/Worsening of PNS By Cumulative Dose of Taxol: ≦200 mg/m^2 [1, 4]: 4 n (%) | Number of Patients Who Developed or Worsened PNS [1, 4]: 8 (21) n (%) | First Occurence/Worsening of PNS By Courses: Course 1 [1, 5]: 3 n (%) | First Occurence/Worsening of PNS By Courses: Course 2 [1, 5]: 2 n (%) | First Occurence/Worsening of PNS By Courses: Course 3 [1, 5]: 1 n (%) | First Occurence/Worsening of PNS By Courses: Course 4 and more [1, 5]: 1 n (%) | First Occurence/Worsening of PNS By Cumulative Dose of Taxol: 201-400 mg/m^2 [1, 5]: 3 n (%) | First Occurence/Worsening of PNS By Cumulative Dose of Taxol: 401-600 mg/m^2 [1, 5]: 1 n (%) | First Occurence/Worsening of PNS By Cumulative Dose of Taxol: >600 mg/m^2 [1, 5]: 1 n (%) | First Occurence/Worsening of PNS By Cumulative Dose of Taxol: ≦200 mg/m^2 [1, 5]: 3 n (%) | Number of Patients Who Developed or Worsened PNS [1, 5]: 7 (16) n (%) | First Occurence/Worsening of PNS By Courses: Course 1 [1, 6]: 7 n (%) | First Occurence/Worsening of PNS By Courses: Course 2 [1, 6]: 9 n (%) | First Occurence/Worsening of PNS By Courses: Course 3 [1, 6]: 1 n (%) | First Occurence/Worsening of PNS By Courses: Course 4 and more [1, 6]: 1 n (%) | First Occurence/Worsening of PNS By Cumulative Dose of Taxol: 201-400 mg/m^2 [1, 6]: 9 n (%) | First Occurence/Worsening of PNS By Cumulative Dose of Taxol: 401-600 mg/m^2 [1, 6]: 1 n (%) | First Occurence/Worsening of PNS By Cumulative Dose of Taxol: >600 mg/m^2 [1, 6]: 1 n (%) | First Occurence/Worsening of PNS By Cumulative Dose of Taxol: ≦200 mg/m^2 [1, 6]: 7 n (%) | Number of Patients Who Developed or Worsened PNS [1, 6]: 18 (62) n (%) | First Occurence/Worsening of PNS By Courses: Course 1 [1, 7]: 9 n (%) | First Occurence/Worsening of PNS By Courses: Course 2 [1, 7]: 8 n (%) | First Occurence/Worsening of PNS By Courses: Course 3 [1, 7]: 1 n (%) | First Occurence/Worsening of PNS By Courses: Course 4 and more [1, 7]: 2 n (%) | First Occurence/Worsening of PNS By Cumulative Dose of Taxol: 201-400 mg/m^2 [1, 7]: 8 n (%) | First Occurence/Worsening of PNS By Cumulative Dose of Taxol: 401-600 mg/m^2 [1, 7]: 2 n (%) | First Occurence/Worsening of PNS By Cumulative Dose of Taxol: >600 mg/m^2 [1, 7]: 1 n (%) | First Occurence/Worsening of PNS By Cumulative Dose of Taxol: ≦200 mg/m^2 [1, 7]: 9 n (%) | Number of Patients Who Developed or Worsened PNS [1, 7]: 20 (44) n (%) | incidence of peripheral neurotoxicity ([1]; high dose arms, 49/74): 66% | peripheral neuropathy symptoms (PNS), about 135 mg/m^2 rather than about 175 mg/m^2 ([1]; in vivo): reduced | incidence of peripheral neuropathy ([1]; long-term (24-hour) infusion, 43/89): 48% | incidence of peripheral neurotoxicity ([1]; low dose arms, 31/83): 37% | incidence of peripheral neuropathy ([1]; short-term infusion arms, 37/68): 50% | patients who required a dose reduction ([2]; female, human, 9 weeks): 17% | dose reduction required, long term infusion arms versus short term infusion arms [2]: more frequently | hypersensitivity reactions which required acute therapeutic intervention ([3]; 2 of 157 patients): 1% | severe hypersensitivity reaction in one patient ([3]; 24-hour arm, course 2 at dose reduced by 20%, less than 1 ml infused): tachychardia and shortness of breath | patients exhibiting some type of hypersensitivity reaction ([3]; 57/157, all arms): 35% | Patients reporting a HSR ([3]; TOTAL, all four arms, 157 patients analyzed): 57 (36) n (%) | Courses with a reported HSR [3, 8]: 136 (26) n (%) | Type of HSR Per Course: Arrhytheria [3, 8]: 1 n (%) | Type of HSR Per Course: Chest pain [3, 8]: 1 n (%) | Type of HSR Per Course: Dyspriea [3, 8]: 5 n (%) | Type of HSR Per Course: Ederma face [3, 8]: 2 n (%) | Type of HSR Per Course: Eye disorder [3, 8]: 2 n (%) | Type of HSR Per Course: Flushing [3, 8]: 103 n (%) | Type of HSR Per Course: Headache [3, 8]: 1 n (%) | Type of HSR Per Course: Hypertension [3, 8]: 1 n (%) | Type of HSR Per Course: Hypotension [3, 8]: 13 n (%) | Type of HSR Per Course: Nausea/Vomiting [3, 8]: 1 n (%) | Type of HSR Per Course: Pruritis [3, 8]: 2 n (%) | Type of HSR Per Course: Rash [3, 8]: 21 n (%) | Type of HSR Per Course: Tachychardia [3, 8]: 1 n (%) | Patients reporting a HSR ([3]; arm 135/3 (mg/m^2/infusion hours), 39 patients analyzed): 11 (28) n (%) | Courses with a reported HSR [3, 9]: 23 (17) n (%) | Type of HSR Per Course: Dyspriea [3, 9]: 2 n (%) | Type of HSR Per Course: Eye disorder [3, 9]: 2 n (%) | Type of HSR Per Course: Flushing [3, 9]: 15 n (%) | Type of HSR Per Course: Hypotension [3, 9]: 1 n (%) | Type of HSR Per Course: Pruritis [3, 9]: 2 n (%) | Type of HSR Per Course: Rash [3, 9]: 6 n (%) | Patients reporting a HSR ([3]; arm 135/24 (mg/m^2/infusion hours), 44 patients analyzed): 18 (41) n (%) | Courses with a reported HSR [3, 10]: 44 (31) n (%) | Type of HSR Per Course: Chest pain [3, 10]: 1 n (%) | Type of HSR Per Course: Dyspriea [3, 10]: 3 n (%) | Type of HSR Per Course: Flushing [3, 10]: 40 n (%) | Type of HSR Per Course: Headache [3, 10]: 1 n (%) | Type of HSR Per Course: Hypotension [3, 10]: 1 n (%) | Type of HSR Per Course: Nausea/Vomiting [3, 10]: 1 n (%) | Type of HSR Per Course: Rash [3, 10]: 6 n (%) | Type of HSR Per Course: Tachychardia [3, 10]: 1 n (%) | Patients reporting a HSR ([3]; arm 175/3 (mg/m^2/infusion hours), 29 patients analyzed): 12 (41) n (%) | Courses with a reported HSR [3, 11]: 23 (25) n (%) | Type of HSR Per Course: Ederma face [3, 11]: 1 n (%) | Type of HSR Per Course: Flushing [3, 11]: 16 n (%) | Type of HSR Per Course: Hypotension [3, 11]: 1 n (%) | Type of HSR Per Course: Rash [3, 11]: 6 n (%) | Patients reporting a HSR ([3]; arm 175/4 (mg/m^2/infusion hours), 45 patients analyzed): 6 (36) n (%) | Courses with a reported HSR [3, 12]: 46 (28) n (%) | Type of HSR Per Course: Arrhytheria [3, 12]: 1 n (%) | Type of HSR Per Course: Ederma face [3, 12]: 1 n (%) | Type of HSR Per Course: Flushing [3, 12]: 32 n (%) | Type of HSR Per Course: Hypertension [3, 12]: 1 n (%) | Type of HSR Per Course: Hypotension [3, 12]: 10 n (%) | Type of HSR Per Course: Rash [3, 12]: 3 n (%)
